Experimental data as given in US8329645B2, “Polymyxin derivatives and uses thereof” (priority 2008, dated 2012).

What was measured:
[1] = tested on: Ps. aeruginosa ATCC 27853; test: Sensitization to rifampin: growth inhibition around wells on LB plates containing rifampin; assay type: cell-based, Pseudomonas aeruginosa; conditions: 4 μg
[2] = tested on: Pseudomonas aeruginosa ATCC 27853; test: Growth inhibition around wells on LB agar plates; assay type: cell-based; conditions: Ps. aeruginosa ATCC 27853
Method in brief: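 Activity against Pseudomonas aeruginosa ATCC 27853 was assessed by agar well diffusion on LB plates. A suspension of about 10^8 cells/ml in 0.9% NaCl was spread over the agar and the excess removed. Once the surface had dried, 2 mm wells were drilled and filled with peptide dissolved in 0.9% NaCl. Plates were incubated 18 h at 37° C, and inhibition zone diameters were converted to areas in square mm.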

E. coli IH3080 [3] = test: Sensitization to rifampin: growth inhibition around wells on LB plates containing rifampin; assay type: cell-based, Escherichia coli; conditions: 4 μg of compound
E. coli = conditions: Sakura et al. (2004); cited from earlier work
E. coli IH3080 [4] = test: Growth inhibition around wells on LB agar plates; assay type: cell-based, Escherichia coli
Method in brief: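 Growth inhibition of encapsulated E. coli IH3080 (K1:O018) was assessed on LB agar plates. A suspension of about 10^8 cells/ml in 0.9% NaCl, made from an overnight LB agar culture, was spread across the plate surface and the excess removed. After drying, 2 mm wells were drilled, with 0.9% NaCl as control. Following 18 h at 37° C., inhibition zone diameters around wells were converted to areas in square mm.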

With “octanoyl polymyxin B heptapeptide [Octanoyl PMBH, reference compound]” the “growth inhibition around a well in the presence of rifampin” value ([1]; rifampin 0 μg/ml) was 0 square millimeters, the “growth inhibition around a well in the presence of rifampin” value ([1]; rifampin 0.1 μg/ml) was 13 square millimeters and the “growth inhibition around a well in the presence of rifampin” value ([1]; rifampin 0.3 μg/ml) was 13 square millimeters. The “growth inhibition around a well” value ([2]; 4 μg) was 0 square millimeters, the “growth inhibition around a well” value ([2]; 10 μg) was 13 square millimeters and the “growth inhibition around a well in the presence of rifampin” value (E. coli IH3080 [3]; rifampin 0 μg/ml) was 0 square millimeters. The “growth inhibition around a well in the presence of rifampin” value (E. coli IH3080 [3]; rifampin 0.1 μg/ml) was 0 square millimeters, the “growth inhibition around a well in the presence of rifampin” value (E. coli IH3080 [3]; rifampin 1.0 μg/ml) was 38 square millimeters and the “concentration needed to inhibit the growth of bacteria” value (E. coli) was 128 µg/mL. The “growth inhibition around a well” value (E. coli IH3080 [4]; 4 μg of compound per well) was 0 square millimeters and the “growth inhibition around a well” value (E. coli IH3080 [4]; 10 μg of compound per well) was 0 square millimeters.
